In US5578570A, “Method of treating septic shock using thymosin β4” (The George Washington University Medical Center, priority 1994, dated 1996):

Assays:
Format in all cases: in vivo
endotoxic mice = experiment: Survival of Swiss Webster mice following lethal endotoxin dose and Tβ4; settings: for Survival (No. mice alive): immediately following, 2 and 4 hrs after endotoxin
Experimental: Swiss-Webster mice 4-6 weeks of age (20-25 g) were housed 6 per cage. The mice were divided into 2 groups: endotoxic mice (endotoxin 60 mg/kg i.p. in acute treatment) and endotoxic mice treated with Tβ4, 5 minutes and 2, 4, 6, 8, 10, 12, 14, 16, 18, 20, 22, 24 hours post administration of the endotoxin. Survival was recorded 2 times a day for 7 days.
Swiss-Webster mice 4-6 weeks of age (20-25 g) were divided into groups as follows.
1. Mice treated with a lethal dose of endotoxin (60 mg/kg).
2. […]
3. […]
4. […]

T × β2 [1] = experiment: T×β2 levels in a septic shock model in rat; settings: rats with septic shock + Tβ4 1 mg/rat × 3
Excerpt: (§1) Using a septic shock model in rats (Sprague-Dawley, male, 200-225 g each), the effect of thymosin β4 alone and together with antibiotics was studied. Peritonitis was induced in rats in the following way. A 1-cm incision was made into the peritoneal which exposed the cecum. A tight ligature was placed around the cecum with 4-0 suture distal to the insertion of the small bowel, forming an area of devitalized tissue while maintaining bowel continuity. A puncture wound was made with 16-gauge needle into the anti-mesenteric surface of the cecum and a small amount of fecal contents was expressed through the wound. The cecum was replaced into the peritoneal cavity, and the anterior peritoneal wall and skin were closed with surgical staples. Each animal was given a bolus of normal saline (15 ml/kg) for hydration and allowed to recover overnight.
(§2) The results presented in Tables XV to XVIII below show effects of Tβ4 respectively on rat cytokine levels, blood malonyldialdehyde levels, glutathione levels and arachidonic acid metabolic levels.

TNFα = TNFα levels in a septic shock model in rat; settings: rats with septic shock + Tβ4 1 mg/rat × 3
Excerpt: as §1, §2

T × β2 [2] = experiment: T×β2 plasma levels in mice after lethal dose of endotoxin; settings: Table X, endotoxin 60 mg/kg + Tβ4 100 μg administered simultaneously
Excerpt: (§3) Using the same methods and materials as in examples 1-3, the effect which Tβ4 has on blood levels of IL-1α, TNF-α, PAG, Txβ2 and 6-keto-PGF1 α, which are pathological mediators of endotoxin induced lethality, was studied.

PAF = PAF blood levels in mice after lethal dose of endotoxin; settings: endotoxin 60 mg/kg + Tβ4 100 μg administered simultaneously; for PAF (plasma levels): Table IX; for PAF (serum levels): Table XII
Excerpt: as §3

[3] = system: blood free radical levels; experiment: Blood free radical levels; settings: compared with SOD
glutathione = experiment: Glutathione levels in a rat septic shock model; settings: for RBC GSH: rats with septic shock + 1 mg/rat × 3
Excerpt: as §1, §2

6-keto-PGF1α = 6-keto-PGF1α plasma levels in mice after lethal dose of endotoxin; settings: Table XI, endotoxin 60 mg/kg + Tβ4 100 μg administered simultaneously
Excerpt: as §3

IL-1α = experiment: Serum IL-1α levels in mice treated with lethal dose of endotoxin; settings: Table V; pretreatment (SOD 3.3 × 10^4 μ/kg, 30 minutes before endotoxin; Tβ4 100 μg/mice); blood collected 1 hr after endotoxin
Excerpt: The results presented in Tables III-V below show effects of Tβ4 respectively on mice cerebellar cGMP levels, blood serum TNF-α levels, and blood serum TNF-α and IL-1α levels.
as §3

Thymosin β4 [Tβ4]
Survival (No. mice alive) (endotoxic mice; Table VI, endotoxin 60 mg/kg + Tβ4 100 μg 3x, 72 hrs, 8 mice at 0 hrs): 8 | Survival (No. mice alive) (endotoxic mice; Table VI, endotoxin 60 mg/kg + Tβ4 100 μg 3x, 96 hrs, 8 mice at 0 hrs): 8 | Survival (No. mice alive) (endotoxic mice; Table VI, endotoxin 60 mg/kg + Tβ4 100 μg 3x, 120 hrs, 8 mice at 0 hrs): 8 | Survival (No. mice alive) (endotoxic mice; Table VII, endotoxin 60 mg/kg + Tβ4 10 μg 3x i.p., 24 hrs, 10 mice at 0 hrs): 3 | Survival (No. mice alive) (endotoxic mice; Table VII, endotoxin 60 mg/kg + Tβ4 10 μg 3x i.p., 48 hrs, 10 mice at 0 hrs): 3 | Survival (No. mice alive) (endotoxic mice; Table VII, endotoxin 60 mg/kg + Tβ4 10 μg 3x i.p., 72 hrs, 10 mice at 0 hrs): 3 | Survival (No. mice alive) (endotoxic mice; Table VII, endotoxin 60 mg/kg + Tβ4 10 μg 3x i.p., 96 hrs, 10 mice at 0 hrs): 3 | Survival (No. mice alive) (endotoxic mice; Table VII, endotoxin 60 mg/kg + Tβ4 10 μg 3x i.p., 5 days, 10 mice at 0 hrs): 3 | Survival (No. mice alive) (endotoxic mice; Table VII, endotoxin 60 mg/kg + Tβ4 10 μg 3x i.p., 6 days, 10 mice at 0 hrs): 3 | Survival (No. mice alive) (endotoxic mice; Table VII, endotoxin 60 mg/kg + Tβ4 20 μg 3x i.p., 24 hrs, 10 mice at 0 hrs): 5 | Survival (No. mice alive) (endotoxic mice; Table VII, endotoxin 60 mg/kg + Tβ4 20 μg 3x i.p., 48 hrs, 10 mice at 0 hrs): 4 | Survival (No. mice alive) (endotoxic mice; Table VII, endotoxin 60 mg/kg + Tβ4 20 μg 3x i.p., 72 hrs, 10 mice at 0 hrs): 4 | Survival (No. mice alive) (endotoxic mice; Table VII, endotoxin 60 mg/kg + Tβ4 20 μg 3x i.p., 96 hrs, 10 mice at 0 hrs): 3 | Survival (No. mice alive) (endotoxic mice; Table VII, endotoxin 60 mg/kg + Tβ4 20 μg 3x i.p., 5 days, 10 mice at 0 hrs): 3 | Survival (No. mice alive) (endotoxic mice; Table VII, endotoxin 60 mg/kg + Tβ4 20 μg 3x i.p., 6 days, 10 mice at 0 hrs): 3 | Survival (No. mice alive) (endotoxic mice; Table VII, endotoxin 60 mg/kg + Tβ4 50 μg 3x i.p., 24 hrs, 10 mice at 0 hrs): 9 | Survival (No. mice alive) (endotoxic mice; Table VII, endotoxin 60 mg/kg + Tβ4 50 μg 3x i.p., 48 hrs, 10 mice at 0 hrs): 7 | Survival (No. mice alive) (endotoxic mice; Table VII, endotoxin 60 mg/kg + Tβ4 50 μg 3x i.p., 72 hrs, 10 mice at 0 hrs): 7 | Survival (No. mice alive) (endotoxic mice; Table VII, endotoxin 60 mg/kg + Tβ4 50 μg 3x i.p., 96 hrs, 10 mice at 0 hrs): 7 | Survival (No. mice alive) (endotoxic mice; Table VII, endotoxin 60 mg/kg + Tβ4 50 μg 3x i.p., 5 days, 10 mice at 0 hrs): 7 | Survival (No. mice alive) (endotoxic mice; Table VII, endotoxin 60 mg/kg + Tβ4 50 μg 3x i.p., 6 days, 10 mice at 0 hrs): 7 | survival rate (endotoxic mice; Tβ4 administered 3 times post administration of endotoxin): 100% | most effective protective dose (endotoxic mice; administered three times): 100 µg | survival of mice treated with endotoxin (in words) (endotoxic mice; administered three times in doses of 50 μg and 20 μg): partially increased the survival | survival rate (endotoxic mice; lethal endotoxin shock, endotoxin 60 mg/kg i.p., Example 1): ≤ 100% | T × β2 (T × β2 [1]): 1627 ± 123 pg/mL | TNFα (TNFα): 1259 ± 138 pg/mL | T × β2 (plasma levels) (T × β2 [2]; 0.5 hr.): 209 ± 9,5 pg/ml | T × β2 (plasma levels) (T × β2 [2]; 1 hr): 607 ± 53 pg/mL | T × β2 (plasma levels) (T × β2 [2]; 2 hr): 196 ± 18 pg/mL | T × β2 (plasma levels) (T × β2 [2]; 3 hr): 112 ± 9 pg/mL | PAF (plasma levels) (PAF; 0.5 hr.): 63 ± 7 pg/mL | PAF (plasma levels) (PAF; 1 hr): 161 ± 17 pg/mL | PAF (plasma levels) (PAF; 2 hr): 66 ± 5 pg/mL | PAF (plasma levels) (PAF; 3 hr): 46 ± 5 pg/mL | PAF (serum levels) (PAF; 1 hr): 807 pg/mL | PAF (serum levels) (PAF; 3 hr): 591 pg/mL | PAF (serum levels) (PAF; 5 hr): 496 pg/mL | blood free radical levels (in words) [3]: reduce blood free radical levels almost as much as SOD | circulating blood levels of glutathione (in words) (glutathione; during sepsis, with Tβ4 administration): returns circulatory gluthathine levels to normal or about normal | RBC GSH (glutathione; first value column): 1.45 ± 0.11 μmoles/ml cells | RBC GSH (glutathione; second value column): 1.39 ± 0.12 μmoles/ml cells | 6-keto-PGF1α (plasma levels) (6-keto-PGF1α; 0.5 hr.): 141 ± 9 pg/mL | 6-keto-PGF1α (plasma levels) (6-keto-PGF1α; 1 hr): 261 ± 23 pg/mL | 6-keto-PGF1α (plasma levels) (6-keto-PGF1α; 2 hr): 147 ± 19 pg/mL | 6-keto-PGF1α (plasma levels) (6-keto-PGF1α; 3 hr): 121 ± 13 pg/mL | Serum IL-1α (IL-1α): 298 ± 20 pg/mL
